Results published in patent publication US4584379A, “Isoquinoline thromboxane synthetase inhibitors” (Merrell Dow Pharmaceuticals Inc., priority 1985, dated 1986).

Tests used:
washed platelets = experiment: 14C-arachidonic acid metabolism by washed platelets (TLC); format: cell-based, human
Protocol: Washed platelets (400 μl) prepared as above were placed in a cuvette. Either vehicle (50 μl), isoquinoline test compound, or indomethacin was then added. After incubation for 55 seconds at 37° C., 50 μl of calcium chloride (5 mM) was added and, at 60 seconds, 50 μl of ^14 C-arachidonic acid (0.1 μCi, 0.4 mM) was added. Four minutes later, 80 μl of 10% formic acid was added to stop the reaction. The contents were then poured into 6.5 ml of ice-cold ethyl acetate and the cuvette was further rinsed twice with 1 ml of ethyl acetate. The samples were subsequently extracted as previously described. The dried extract was reconstituted in chloroform:methanol (2:1) and spotted onto TLC plates. PGE2 PGF2α, TXB2 (20 μg of each) were spotted as the reference. The plates were developed in a chloroform:methanol, acetic acid, water (90:8:1:0.8) solution. […] Each plate was visualized with iodine vapor, the Rf s noted and then 1 cm zones scraped and counted in a Beckman Liquid Scintillation spectrometer.

platelet rich plasma [1] = experiment: arachidonic acid induced platelet aggregation in platelet rich plasma (Born aggregometry); format: cell-based, human
Protocol: (§1) The specific inhibitory activity of the present compounds can be determined by the following procedures. For platelet aggregation, blood was collected from normal volunteers into sodium citrate (3.8% w/v) 9:1. The indicated volunteers had not ingested aspirin or other non-steroidal anti-inflammatory drugs for at least 7 days. Platelet rich plasma was prepared from the blood by centrifugation at 200×g for 15 minutes. This plasma was centrifuged at 10,000×g for 2 minutes to obtain platelet poor plasma blank. The platelet rich plasma was incubated at 37° C. for 60 seconds prior to addition of vehicle or compound. The platelet rich plasma was then incubated for an additional 60 seconds prior to the addition of arachidonic acid or ADP. Aliquots (50 μl) were removed at 30 and 60 seconds after the addition of arachidonic acid for determination of iTXB2. Platelet aggregation was monitored in a Model 300 Chronolog aggregometer using the method of Born.

platelet rich plasma [2] = experiment: ADP induced platelet aggregation in platelet rich plasma (Born aggregometry); format: cell-based, human
Protocol: as §1

thromboxane synthetase [3] = experiment: iTXB2 produced during arachidonic acid induced platelet aggregation; format: cell-based, human; settings: 1 mM
Protocol: as §1

thromboxane synthetase [4] = experiment: iTXB2 production by whole blood after intravenous dosing of rats; format: in vivo, Sprague-Dawley rats; settings: 30 minutes prior to obtaining blood, female rats
Protocol: Varying doses of the test compound were administered intravenously to female Sprague-Dawley rats weighing between 250-300 g 30 minutes prior to obtaining blood. […] A dose of 10 mg/kg produced approximately a 50% inhibition of iTXB2 production.

microphages = experiment: endogenous arachidonic acid metabolism by microphages; format: cell-based
Protocol: To establish if the test compound was a selective thromboxane synthetase inhibitor or a fatty acid cyclooxygenase inhibitor, the effects of the isoquinoline on endogenous arachidonic acid metabolism by microphages was assessed. […] The effect on i-6-keto-PGFα levels was variable. At a concentration of 500 μm it inhibited i-6-keto-PGFα formation and at 250 μm it increased its formation. At all other concentrations it had no affect.

`COc1ccc2c(c1)c(CC(=O)O)c(C)n2C(=O)c1ccc(Cl)cc1` [indomethacin, reference compound] showed an inhibition at 50 µM (washed platelets; Homo sapiens, Platelet, 4 min, read-out: reduction of metabolism of arachidonic acid compared to controls) of 78%.
`O=C(O)c1ccc(NCc2cncc3ccccc23)cc1` [isoquinoline, 4-[(4-isoquinolinylmethyl)amino]benzoic acid] was tested, and the “rate of arachidonic acid induced platelet aggregation” value (platelet rich plasma [1]; 0.5 mM) was “significantly inhibited”, the “rate of arachidonic acid induced platelet aggregation” value (platelet rich plasma [1]; 1 mM) was “significantly inhibited” and the “ADP induced platelet aggregation as compared to control” value (platelet rich plasma [2]; 1 mM) was “marked effect”. The inhibition at 1000 µM (platelet rich plasma [2]; Homo sapiens, Platelet, 1 min, 1000 μM, at 60 seconds, read-out: reduction of ADP aggregation) was 30%, the “amounts of iTXB2 produced during arachidonic acid induced platelet aggregation” value (thromboxane synthetase [3]; 30 seconds) was “significantly reduced” and the “amounts of iTXB2 produced during arachidonic acid induced platelet aggregation” value (thromboxane synthetase [3]; 60 seconds) was “significantly reduced”. For the same compound, the “percent of arachidonic acid converted to PGE2” value (washed platelets; washed platelets) was “did not affect”, the “percentage of arachidonic acid converted to TXB2” value (washed platelets; washed platelets) was “reduced” and the “total amount of arachidonic acid metabolized via the cyclo-oxygenase pathway” value (washed platelets; washed platelets, versus vehicle controls) was “not different from the vehicle controls”. The “inhibition of iTXB2 production” value (thromboxane synthetase [4]; 10 mg/kg intravenously) was ~50%, the “iTXB2 production by whole blood” value (thromboxane synthetase [4]; varying doses intravenously) was “dose dependent reduction” and the “basal synthesis of iTXB2 by microphages” value (microphages; 10 μM to 1000 μM) was “significantly reduced”. For the same compound, the i-6-keto-PGFα formation (microphages; 250 μm) was “increased”, the i-6-keto-PGFα formation (microphages; 500 μm) was “inhibited” and the i-6-keto-PGFα formation (microphages; all other concentrations) was “no affect”. The iPGE levels (microphages; at most concentrations) was “significantly increased” and the “selectivity for thromboxane synthesis” value (microphages; conclusion from iTXB2, iPGE and i-6-keto-PGFα levels) was “appears to selectively inhibit thromboxane synthesis”.
